{
  "source": "patent EP0788741B1",
  "about": "(priority 1996, dated 1997)",
  "origin": "cited, not measured here",
  "tested_on": "Australorbis Glabratus",
  "conditions": "Public Health Report, Vol. 82, No. 9; cited from earlier work",
  "data": [
    {"smiles": "CCCCCCCCCCCCCN(C)C.CCCCCCCCCCCCCN(C)C.O=C(O)C1C2CCC(O2)C1C(=O)O", "note": "[di (N,N-dimethyltridecylamine) salt of Endothall]", "values": [
      {"measurement": "concentration effective to kill Puerto Rican snails", "value": 5, "unit": "ppm"}
    ]},
    {"smiles": "CCCCCCCCCCCCCN(C)C.O=C(O)C1C2CCC(O2)C1C(=O)O", "note": "[mono (N,N-dimethyltridecylamine) salt of Endothall]", "values": [
      {"measurement": "concentration effective to kill Puerto Rican snails", "value": 10, "unit": "ppm"}
    ]}
  ]
}
